Laboratory results as given in US10865257B2, “Production methods for aqueous emulsion, fine powder and stretched porous body of modified polytetrafluoroethylene” (AGC Inc., priority 2015, dated 2020).

Experiment: LogPOW, distribution coefficient in 1-octanol and water (OECD Test Guideline 107, 117; JIS Z7260-107)
Assay type: physicochemical
Conditions: 1-octanol/water (1:1) distribution coefficient
Excerpt: In the present invention, a fluorinated anionic surfactant having a LogPOW of from 2.4 to 3.4 is used. The LogPOW is a distribution coefficient in 1-octanol and water as stipulated in OECD Test Guideline 107, 117 and Japanese Industrial Standard Z7260-107 (2000).
At the time when a mixed liquid of octanol/water (1:1) each containing a surfactant to be measured, is phase-separated, POW represents a ratio of the surfactant concentration in octanol/the surfactant concentration in water. A surfactant having a large distribution coefficient value has a high bioaccumulation property, and a surfactant having a small distribution coefficient value has a low bioaccumulation property. When the LogPOW is 3.4 or less, the bioaccumulation property is judged to be low. By the measurement conducted by the present inventors, the LogPOW of APFO was 3.67.

O=C(O)C(F)(F)OC(F)(F)C(F)(F)OC(F)(F)C(F)(F)F [APFDO, ammonium perfluoro-3,6-dioxaoctanoate]
logP: 3.1

O=C(O)C(F)(F)C(F)(F)C(F)(F)C(F)(F)C(F)(F)C(F)(F)C(F)(F)F [APFO, ammonium perfluorooctanoate]
logP: 3.67
